Experimental data from ChEMBL document CHEMBL1201862, “PubChem BioAssay data set” (2004).
Calls of active or inactive are those of the source. Rule as the data show it, for most assays here: actives have a measured EC50 and inactives only a lower limit.

tested on: not listed separately; test: Luminescence Cell-Based Dose Confirmation HTS to Identify Inhibitors of Platelet Dense Granule Release. [Related pubchem assays: 1663 (Primary HTS), 1678 (Summary of Project)]; format: functional; details: not given
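For AC50 in this document: cells exposed to compound for roughly 70 hours or longer before luminescence read.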

Question: For `Cc1ccc(NS(=O)(=O)c2ccc(Cl)c(C(=O)Nc3ccccc3-c3nc4ccccc4[nH]3)c2)cc1C`, which EC50 is on record?
Answer: > 112 µM (not active)

tested on: not listed separately; test: cells; format: functional; details: not given

Question: With `O=C(OCn1nnc2ccccc2c1=O)C1CCCCC1` as the molecule, how does the IC50 read?
Answer: 6.75 µM (active)

Question: For `CN1CCC(O)(c2ccc(Cl)cc2)C(C(=O)c2ccc(Cl)cc2)C1` (configuration not stated), which IC50 is on record?
Answer: 38.5 µM (active)

Question: With `COc1ccc(/C=N/NC(=O)c2ccncc2)cc1CN1CCOCC1` as the molecule, how does the IC50 read?
Answer: 0.64 µM (active)

Question: For `O=C(Nc1ccccn1)c1ccc(C(=O)c2ccccc2)cc1`, which IC50 is on record?
Answer: 32.6 µM (active)

Question: With `COc1cc(/C=N/NC(=O)c2ccccn2)ccc1OC(=O)c1cccs1` as the molecule, how does the IC50 read?
Answer: 10.5 µM (active)

tested on: not listed separately; test: Luminescence Cell-Based Dose Retest to Confirm Inhibitors of Cancer Stem Cells. [Related pubchem assays (depositor defined):AID2717, AID2721]; format: functional; details: Homo sapiens

Question: With `Cc1ccc(NS(=O)(=O)c2ccc(Cl)c(C(=O)Nc3ccccc3-c3nc4ccccc4[nH]3)c2)cc1C` as the molecule, how does the AC50 read?
Answer: 0.647 µM (active)

tested on: not listed separately; test: inhibitors of intracellular T. cruzi replication, confirmation, NIH3T3 host cells, beta-gal luminescence (AID 2044); format: functional, cell-based; details: not given;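 also: intracellular parasites grown in NIH/3T3 mouse fibroblasts as host cells; luminescent beta-galactosidase reporter signal from transgenic T. cruzi replicating inside host cells; inhibitors lower the luminescence signal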

Question: With `Cc1ccc(NS(=O)(=O)c2ccc(Cl)c(C(=O)Nc3ccccc3-c3nc4ccccc4[nH]3)c2)cc1C` as the molecule, how does the EC50 read?
Answer: 2.49 µM (active)

molecular target: Luciferin 4-monooxygenase (Photinus pyralis, UniProt P08659); test: firefly luciferase enzyme inhibitors, dose response, biochemical, luminescence (AID 1891); details: not given
Sequence (P08659 whole entry): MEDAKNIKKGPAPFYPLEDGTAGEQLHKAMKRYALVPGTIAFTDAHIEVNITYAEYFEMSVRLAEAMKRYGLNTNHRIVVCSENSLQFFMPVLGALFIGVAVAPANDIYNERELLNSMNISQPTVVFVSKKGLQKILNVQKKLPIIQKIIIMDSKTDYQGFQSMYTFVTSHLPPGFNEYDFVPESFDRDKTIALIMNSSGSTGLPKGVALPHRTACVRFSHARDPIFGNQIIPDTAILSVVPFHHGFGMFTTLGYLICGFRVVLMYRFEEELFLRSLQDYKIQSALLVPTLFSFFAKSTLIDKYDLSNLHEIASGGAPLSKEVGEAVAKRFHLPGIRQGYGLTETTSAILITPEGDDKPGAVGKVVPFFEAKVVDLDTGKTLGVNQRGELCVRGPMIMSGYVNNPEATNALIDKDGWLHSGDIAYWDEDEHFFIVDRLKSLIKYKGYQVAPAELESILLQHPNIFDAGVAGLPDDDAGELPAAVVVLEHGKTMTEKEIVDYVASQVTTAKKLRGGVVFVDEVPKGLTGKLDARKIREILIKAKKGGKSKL

Question: For `Cc1ccc(NS(=O)(=O)c2ccc(Cl)c(C(=O)Nc3ccccc3-c3nc4ccccc4[nH]3)c2)cc1C`, which EC50 is on record?
Answer: > 112 µM (not active)

molecular target: T1, Corticotropin-releasing factor receptor 2/Corticotropin-releasing factor-binding protein (Homo sapiens, UniProt P24387+Q13324); test: activators of CRF receptor 2 with binding protein – uHTS hits, confirmation (AID 602473); format: functional; details: read-out: EC50_Mean
T1 sequence (Q13324 whole entry): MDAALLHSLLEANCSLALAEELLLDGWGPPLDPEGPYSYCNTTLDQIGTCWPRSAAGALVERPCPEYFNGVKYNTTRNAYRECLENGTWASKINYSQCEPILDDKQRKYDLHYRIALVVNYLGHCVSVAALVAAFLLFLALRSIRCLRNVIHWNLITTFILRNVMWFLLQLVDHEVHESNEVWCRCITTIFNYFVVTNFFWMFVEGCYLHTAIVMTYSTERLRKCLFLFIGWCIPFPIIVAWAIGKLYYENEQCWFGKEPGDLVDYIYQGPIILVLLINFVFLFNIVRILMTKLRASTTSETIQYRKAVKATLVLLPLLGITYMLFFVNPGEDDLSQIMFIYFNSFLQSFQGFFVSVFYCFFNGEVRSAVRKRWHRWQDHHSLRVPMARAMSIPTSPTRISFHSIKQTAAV
T1 sequence (P24387 whole entry): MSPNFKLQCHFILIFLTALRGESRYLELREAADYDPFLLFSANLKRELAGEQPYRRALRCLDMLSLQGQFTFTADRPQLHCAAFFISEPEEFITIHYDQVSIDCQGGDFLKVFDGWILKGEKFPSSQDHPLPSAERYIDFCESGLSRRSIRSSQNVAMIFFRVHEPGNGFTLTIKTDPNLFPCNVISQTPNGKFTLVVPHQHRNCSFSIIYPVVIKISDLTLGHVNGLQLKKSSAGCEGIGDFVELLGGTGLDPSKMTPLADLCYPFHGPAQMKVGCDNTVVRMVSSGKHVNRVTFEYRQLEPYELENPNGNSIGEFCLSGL

Question: Which EC50 does the source give for `Cc1cc(C)n2nc(CC(=O)NNC(=O)c3ccccc3Cl)nc2n1` here?
Answer: > 53 µM (inactive)

Question: Which EC50 does the source give for `CCOC(=O)c1cc(NC(=O)Nc2cc(C)ccn2)c(C)nc1C` here?
Answer: > 53 µM (inactive)

Question: For `Nc1nc(O)cc(Nc2ccccc2Cl)n1`, which EC50 is on record?
Answer: > 53 µM (inactive)

Question: For `OCCOCCN1CCN(C(S)=Nc2ccccc2)CC1`, which EC50 is on record?
Answer: > 53 µM (inactive)

Question: For `COc1cccc(Oc2ccc(OC)cc2C(=O)O)c1`, which EC50 is on record?
Answer: > 53 µM (inactive)

Question: Which EC50 does the source give for `CC(=O)C1=C(O)C(=O)N(Cc2ccccc2)C1c1ccc(F)cc1` (configuration not stated) here?
Answer: > 53 µM (inactive)

Question: With `O=C(NCCc1csc(-c2ccccc2)n1)c1c(F)cccc1Cl` as the molecule, how does the EC50 read?
Answer: > 53 µM (inactive)

Question: With `SC1=NCN(CCc2ccccc2)CN1Cc1ccccc1` as the molecule, how does the EC50 read?
Answer: > 53 µM (inactive)

molecular target: T2, Heat shock factor protein 1 (Mus musculus, UniProt P38532); test: inhibition of MG132-induced HSE-luciferase signal, confirmation, cell-based, NIH3T3, luminescence, dose retest (AID 2382); format: functional; details: not given;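 also: NIH3T3 fibroblasts with HSF1-driven luciferase reporter stressed by proteasome inhibitor MG132; luminescence from HSF1-driven luciferase expression after 8 hours of MG132 stress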
T2 sequence (P38532 whole entry): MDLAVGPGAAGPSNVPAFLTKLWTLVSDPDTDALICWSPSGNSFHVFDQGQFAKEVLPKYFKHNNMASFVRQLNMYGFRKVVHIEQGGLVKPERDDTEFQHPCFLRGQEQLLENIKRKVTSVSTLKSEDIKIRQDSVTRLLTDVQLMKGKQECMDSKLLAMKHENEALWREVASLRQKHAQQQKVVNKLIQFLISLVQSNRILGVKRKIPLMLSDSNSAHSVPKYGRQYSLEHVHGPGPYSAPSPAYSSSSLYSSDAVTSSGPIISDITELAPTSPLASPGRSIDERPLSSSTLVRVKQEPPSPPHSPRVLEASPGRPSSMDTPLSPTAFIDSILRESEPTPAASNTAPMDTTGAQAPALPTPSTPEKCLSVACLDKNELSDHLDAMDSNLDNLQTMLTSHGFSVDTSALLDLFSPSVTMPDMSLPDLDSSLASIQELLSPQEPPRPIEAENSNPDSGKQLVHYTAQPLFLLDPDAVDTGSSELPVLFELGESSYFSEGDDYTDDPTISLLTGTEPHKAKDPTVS

Question: For `CC(=O)c1c(C)n(CCCOC(C)C)c2ccc(O)cc12`, which EC50 is on record?
Answer: > 195 µM (not active)

Question: Which EC50 does the source give for `CCc1c(C)nc2ccc(C)cc2c1O` here?
Answer: > 195 µM (not active)

Question: With `Cc1cc(C)nc(NC(=O)c2ccc(C)c([N+](=O)[O-])c2)n1` as the molecule, how does the EC50 read?
Answer: > 195 µM (not active)

Question: Which EC50 does the source give for `COc1ccc(-n2cc([N+](=O)[O-])c(=O)c3ccc(Cl)cc32)cc1` here?
Answer: > 195 µM (not active)

Question: Which EC50 does the source give for `S=C(NCCc1ccccc1)N1CCN(Cc2ccc(Cl)c(Cl)c2)CC1` here?
Answer: > 195 µM (not active)

Question: Which EC50 does the source give for `CC(C)Cn1c(N2CCN(C(=O)/C=C/c3ccccc3)CC2)nc2ccccc21` here?
Answer: > 195 µM (not active)

tested on: not listed separately; test: cytotoxicity toward NIH3T3 fibroblasts, dose response, counter-screen, cell-based, ATP luminescence, mouse fibroblasts (AID 2010); format: functional; details: not given;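 also: cells exposed to compound for about 90 hours before reading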

Question: Which EC50 does the source give for `Cc1ccc(NS(=O)(=O)c2ccc(Cl)c(C(=O)Nc3ccccc3-c3nc4ccccc4[nH]3)c2)cc1C` here?
Answer: < 6 µM (inconclusive)

molecular target: T1, Corticotropin-releasing factor receptor 2/Corticotropin-releasing factor-binding protein; test: Dose Response confirmation of uHTS hits for small molecule antagonists of the CRF-binding protein and CRF-R2 receptor complex.; format: functional; details: read-out: IC50_Mean

Question: For `Cc1cc(C)n2nc(CC(=O)NNC(=O)c3ccccc3Cl)nc2n1`, which IC50 is on record?
Answer: > 47.1 µM (inactive)

Question: Which IC50 does the source give for `CCOC(=O)c1cc(NC(=O)Nc2cc(C)ccn2)c(C)nc1C` here?
Answer: > 47.1 µM (inactive)

Question: For `Nc1nc(O)cc(Nc2ccccc2Cl)n1`, which IC50 is on record?
Answer: > 47.1 µM (inactive)

Question: With `OCCOCCN1CCN(C(S)=Nc2ccccc2)CC1` as the molecule, how does the IC50 read?
Answer: > 47.1 µM (inactive)

Question: Which IC50 does the source give for `COc1cccc(Oc2ccc(OC)cc2C(=O)O)c1` here?
Answer: > 47.1 µM (inactive)

Question: With `CC(=O)C1=C(O)C(=O)N(Cc2ccccc2)C1c1ccc(F)cc1` (configuration not stated) as the molecule, how does the IC50 read?
Answer: > 47.1 µM (inactive)

Question: For `O=C(NCCc1csc(-c2ccccc2)n1)c1c(F)cccc1Cl`, which IC50 is on record?
Answer: > 47.1 µM (inactive)

Question: For `SC1=NCN(CCc2ccccc2)CN1Cc1ccccc1`, which IC50 is on record?
Answer: > 47.1 µM (inactive)
